{"source": "patent US7205382B2", "about": "“Peptides, the production and use thereof for binding immunoglobulins” (Fresenius Medical Care Affina GmbH, priority 2000, dated 2007)", "format_in_all_cases": "binding", "design_in_all_cases": "key: No binding of immunoglobulin for the defined peptide variant, detection negative: 0; Binding of immunoglobulin for the defined peptide variant, detection positive: +", "key": {"serum albumin": {"test_system": "serum albumin", "test": "Cellulose-immobilized 13-mer peptide variants incubated with serum albumin (negative control), anti-human IgG-AP detection", "settings": "blocking buffer without addition, 3 h room temperature", "procedure,_shortened": "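Read-out was colorimetric NBT/BCIP staining (developing buffer pH 9.5) after alkaline phosphatase-conjugated anti-human IgG at 1.2 μg/ml. Before this, the immobilized peptides had been incubated 3 h at room temperature with 1 μg/ml IgG-Fc, 1:10,000 diluted serum, or albumin-containing blocking buffer without addition.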"}, "[1]": {"test_system": "immunoglobulins in human plasma", "test": "Cellulose-immobilized 13-mer peptide variants incubated with human plasma, anti-human IgG-AP detection", "settings": "human plasma as sample, diluted 1:10,000 in blocking buffer, 3 h room temperature", "procedure,_shortened": "(§1)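 SPOT-type 13-mer peptides on cellulose with a (βA)(βA) spacer, blocked in 5% saccharose/4% BSA in T-TBS pH 8.0. Incubated 3 h at RT with human IgG-Fc (1 μg/ml) or human serum/plasma (1:10,000), or with blocking buffer alone as the albumin specificity control. Bound IgG detected with AP-anti-human IgG (1.2 μg/ml) and NBT/BCIP colorimetric development at pH 9.5.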"}, "human IgG-Fc": {"test_system": "human IgG-Fc", "test": "Cellulose-immobilized 13-mer peptide variants incubated with human IgG-Fc, anti-human IgG-AP detection", "settings": "IgG-Fc 1 μg/ml in blocking buffer, 3 h room temperature", "procedure,_shortened": "as §1"}}, "note": "Bridge positions count the residues as written; N and C are the ends. Square brackets hold non-standard residues; d marks the D form. Ends that are not written are not given here. cellulose = not defined here; βAla = NCCC(=O)O", "data": [{"substance": "01E: cellulose-bound 13-mer variant ECAWHLGELVWCT-(βA)(βA) (ECAWHLGELVWCT-{βAla-βAla-cellulose}; disulfide 2-12 (inferred); reading uncertain; also: printed as ECAWHLGELVWCT-(βA)(βA))", "values": [{"measurement": "Result for incubation with serum albumin (immunoglobulin binding detection)", "setting": "serum albumin", "result": 0}, {"measurement": "Result for incubation with human plasma (immunoglobulin binding detection)", "setting": "[1]", "result": "+"}, {"measurement": "Result for incubation with human IgG-Fc (immunoglobulin binding detection)", "setting": "human IgG-Fc", "result": "+"}]}, {"substance": "02D: cellulose-bound 13-mer variant DDAWHLGELVWCT-(βA)(βA) (DDAWHLGELVWCT[βAla][βAla]; not fully specified; printed as DDAWHLGELVWCT-(βA)(βA); also: cellulose-bound)", "values": [{"measurement": "Result for incubation with serum albumin (immunoglobulin binding detection)", "setting": "serum albumin", "result": 0}, {"measurement": "Result for incubation with human plasma (immunoglobulin binding detection)", "setting": "[1]", "result": 0}, {"measurement": "Result for incubation with human IgG-Fc (immunoglobulin binding detection)", "setting": "human IgG-Fc", "result": 0}]}, {"substance": "11Y: cellulose-bound 13-mer variant DCAWHLGELVYCT-(βA)(βA)", "values": [{"measurement": "Result for incubation with serum albumin (immunoglobulin binding detection)", "setting": "serum albumin", "result": 0}, {"measurement": "Result for incubation with human plasma (immunoglobulin binding detection)", "setting": "[1]", "result": 0}, {"measurement": "Result for incubation with human IgG-Fc (immunoglobulin binding detection)", "setting": "human IgG-Fc", "result": 0}]}, {"substance": "12G: cellulose-bound 13-mer variant DCAWHLGELVWGT-(βA)(βA) (DCAWHLGELVWGT-{βAla-βAla-cellulose}; not fully specified; printed as DCAWHLGELVWGT-(βA)(βA); reading uncertain)", "values": [{"measurement": "Result for incubation with serum albumin (immunoglobulin binding detection)", "setting": "serum albumin", "result": 0}, {"measurement": "Result for incubation with human plasma (immunoglobulin binding detection)", "setting": "[1]", "result": 0}, {"measurement": "Result for incubation with human IgG-Fc (immunoglobulin binding detection)", "setting": "human IgG-Fc", "result": 0}]}, {"substance": "01P: cellulose-bound 13-mer variant PCAWHLGELVWCT-(βA)(βA) (PCAWHLGELVWCT-{βAla-βAla-cellulose}; disulfide 2-12 (inferred); reading uncertain; also: printed as PCAWHLGELVWCT-(βA)(βA))", "values": [{"measurement": "Result for incubation with serum albumin (immunoglobulin binding detection)", "setting": "serum albumin", "result": 0}, {"measurement": "Result for incubation with human plasma (immunoglobulin binding detection)", "setting": "[1]", "result": 0}, {"measurement": "Result for incubation with human IgG-Fc (immunoglobulin binding detection)", "setting": "human IgG-Fc", "result": "+"}]}, {"substance": "04A: cellulose-bound 13-mer variant DCAAHLGELVWCT-(βA)(βA) (DCAAHLGELVWCT-{βAla-βAla-cellulose}; disulfide 2-12 (inferred); reading uncertain; also: printed as DCAAHLGELVWCT-(βA)(βA))", "values": [{"measurement": "Result for incubation with serum albumin (immunoglobulin binding detection)", "setting": "serum albumin", "result": 0}, {"measurement": "Result for incubation with human plasma (immunoglobulin binding detection)", "setting": "[1]", "result": 0}, {"measurement": "Result for incubation with human IgG-Fc (immunoglobulin binding detection)", "setting": "human IgG-Fc", "result": 0}]}, {"substance": "09N: cellulose-bound 13-mer variant DCAWHLGENVWCT-(βA)(βA) (DCAWHLGENVWCT-{βAla-βAla-cellulose}; disulfide 2-12 (inferred); reading uncertain; also: printed as DCAWHLGENVWCT-(βA)(βA))", "values": [{"measurement": "Result for incubation with serum albumin (immunoglobulin binding detection)", "setting": "serum albumin", "result": 0}, {"measurement": "Result for incubation with human plasma (immunoglobulin binding detection)", "setting": "[1]", "result": 0}, {"measurement": "Result for incubation with human IgG-Fc (immunoglobulin binding detection)", "setting": "human IgG-Fc", "result": 0}]}, {"substance": "06H: cellulose-bound 13-mer variant DCAWHHGELVWCT-(βA)(βA) (DCAWHHGELVWCT-{βAla-βAla-cellulose}; disulfide 2-12 (inferred); not fully specified (N-terminus); printed as DCAWHHGELVWCT-(βA)(βA); reading uncertain)", "values": [{"measurement": "Result for incubation with serum albumin (immunoglobulin binding detection)", "setting": "serum albumin", "result": 0}, {"measurement": "Result for incubation with human plasma (immunoglobulin binding detection)", "setting": "[1]", "result": "+"}, {"measurement": "Result for incubation with human IgG-Fc (immunoglobulin binding detection)", "setting": "human IgG-Fc", "result": "+"}]}, {"substance": "04L: cellulose-bound 13-mer variant DCALHLGELVWCT-(βA)(βA) (DCALHLGELVWCT[βAla][βAla]; disulfide 2-12 (inferred); also: cellulose-bound)", "values": [{"measurement": "Result for incubation with serum albumin (immunoglobulin binding detection)", "setting": "serum albumin", "result": 0}, {"measurement": "Result for incubation with human plasma (immunoglobulin binding detection)", "setting": "[1]", "result": 0}, {"measurement": "Result for incubation with human IgG-Fc (immunoglobulin binding detection)", "setting": "human IgG-Fc", "result": "+"}]}]}
